We go through two molecules from article PMC8973283, “First-in-Humans Evaluation of a PD-L1–Binding Peptide PET Radiotracer in Non–Small Cell Lung Cancer Patients” (Journal of Nuclear Medicine, 2022).

The subject of series [1] is NSCLC lesions. As to conditions: human, in vivo; cited from earlier work.
Series [2] deals with NSCLC lesions. As to conditions: human, in vivo.
Description: Patients were injected intravenously with ^68Ga-NOTA-WL12 (1.9–3.7 MBq/kg). To determine the optimal peptide dose required to obtain high-contrast images, an escalated nonradiolabeled WL12 mass dose was coadministered with the imaging agent. The first 2 patients received 0 μg, the next 3 received 5 ug, then 60 ug, and the final group of 3 received 120 μg. […] The first patient underwent a dynamic scan at 6 time points in 1 h. The remaining 8 patients underwent PET/CT at 1 h after injection, and 6 of those were also scanned at 2 h after injection (2 patients were unable to tolerate the full 2-h examination). […] Images were reconstructed with ordered-subset expectation maximization. […] CT data were used to correct the PET images for attenuation. Vital signs, laboratory studies, and electrocardiograms were obtained before injection, during the screening period, and 2 d after PET/CT.
Images were analyzed by 2 experienced nuclear medicine physicians. […] To compare the uptake differences between the liver, spleen, small intestine (SI), and kidney among patients coadministered with different doses of WL12, multisite measurement was applied, and the uptake was calculated as an average of the number of patients corresponding to different dose administrations separately (Supplemental Fig. 3). […]
Series [3] can be described thus: Radiation dosimetry in patients (OLINDA/EXM). Format: in vivo, human. As to conditions: administered dose 224 ± 37 MBq, n = 4. Here is the method:
Data from 4 patients with 120 μg of coinjected WL12 were used for ^68Ga-NOTA-WL12 dosimetry analysis, and the heart contents, lungs, liver, spleen, pancreas, kidneys, uterus, urinary bladder contents, and body remainder were selected as source organs. The volumes of the source organs manually drawn on CT images were calculated, and their mean counts/mL (kBq/mL) were determined from PET images at 1 and 2 h time points. Dosimetry was estimated using OLINDA/EXM software (version 2.0; Hermes Medical Solutions AB). Detailed procedures are provided in the supplemental materials.

Series [4] in a line: Clinical safety monitoring after PET/CT. Format: in vivo, human. Here is the method:
Patients were injected intravenously with ^68Ga-NOTA-WL12 (1.9–3.7 MBq/kg). To determine the optimal peptide dose required to obtain high-contrast images, an escalated nonradiolabeled WL12 mass dose was coadministered with the imaging agent. The first 2 patients received 0 μg, the next 3 received 5 ug, then 60 ug, and the final group […] received 120 μg. […] The first patient underwent a dynamic scan at 6 time points in 1 h. The remaining 8 patients underwent PET/CT at 1 h after injection, and 6 of those were also scanned at 2 h after injection (2 patients were unable to tolerate the full 2-h examination). […] Images were reconstructed with ordered-subset expectation maximization. CT reconstruction used a standard method with a 512 × 512 matrix and a layer thickness of 3–5 mm. CT data were used to correct the PET images for attenuation. Vital signs, laboratory studies, and electrocardiograms were obtained before injection, during the screening period, and 2 d after PET/CT.

In another series the test system is CHO tumors. Put plainly: Small-animal PET of NOD/SCID mice bearing negative control CHO tumors. The format is in vivo.
The nature of another series: in vivo. The conditions noted are these: NOD/SCID, mouse, iv, 7.4 MBq (~0.17 ug), total radioactivity.
A further series has as its system CHO-hPD-L1 tumors. Put plainly: Small-animal PET of NOD/SCID mice bearing CHO-hPD-L1 tumors. The conditions noted are these: 50 μg blocking dose coinjected.
In the next series the target is T1, PD-L1 (CHO-hPD-L1 cells) (Homo sapiens, UniProt Q9NZQ7).
T1 construct: expressed in transfected cells
T1 sequence (Q9NZQ7 19-290): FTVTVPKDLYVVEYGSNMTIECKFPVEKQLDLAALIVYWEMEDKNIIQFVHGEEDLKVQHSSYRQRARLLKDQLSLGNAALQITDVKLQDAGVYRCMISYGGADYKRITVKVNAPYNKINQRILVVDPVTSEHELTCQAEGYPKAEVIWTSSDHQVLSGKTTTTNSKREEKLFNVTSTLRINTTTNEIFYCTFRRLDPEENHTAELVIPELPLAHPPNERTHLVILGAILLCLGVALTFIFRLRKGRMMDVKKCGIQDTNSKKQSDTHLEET
The experiment in a line: In vitro cellular uptake in CHO-hPD-L1 versus CHO cells. Format: cell-based. As to conditions: CHO-hPD-L1 vs CHO cells. An excerpt: The Chinese hamster ovary (CHO) cell line was obtained from American Type Culture Collection. A CHO cell line with constitutive PD-L1 expression (CHO-hPD-L1) was generated in our laboratory and described previously ([23]). Details of the cell culture, flow cytometry analysis for PD-L1 expression, and in vitro assays are provided in the supplemental materials.

The nature of series [5]: First-in-human PET/CT in advanced NSCLC patients: tumor uptake and biodistribution. As to conditions: human, iv.
Description: Patients were injected intravenously with ^68Ga-NOTA-WL12 (1.9–3.7 MBq/kg). To determine the optimal peptide dose required to obtain high-contrast images, an escalated nonradiolabeled WL12 mass dose was coadministered with the imaging agent. The first 2 patients received 0 μg, the next 3 received 5 ug, then 60 ug, and the final group of 3 received 120 μg. […] The first patient underwent a dynamic scan at 6 time points in 1 h. The remaining 8 patients underwent PET/CT at 1 h after injection, and 6 of those were also scanned at 2 h after injection (2 patients were unable to tolerate the full 2-h examination). […] Images were reconstructed with ordered-subset expectation maximization. CT reconstruction used a standard method with a 512 × 512 matrix and a layer thickness of 3–5 mm. CT data were used to correct the PET images for attenuation.
Images were analyzed by 2 experienced nuclear medicine physicians. The uptake parameters of major organs, tissues, and lesions were obtained to determine the organ biodistribution. SUVlean (SUL) was obtained by standardizing SUV to the body mass, which is less dependent on body habitus ([24]). […] Accordingly, we used SULmean and percentage of injected activity to describe radiopharmaceutical uptake in normal organs. To compare the uptake differences between the liver, spleen, small intestine (SI), and kidney among patients coadministered with different doses of WL12, multisite measurement was applied, and the uptake was calculated as an average of the number of patients corresponding to different dose administrations separately (Supplemental Fig. 3). To analyze normal organ uptake at different time points, 6 patients with 1- and 2-h imaging were involved. The maximum, peak, and mean values of SUV and SUL in biopsied lesions were obtained and used to correlate with PD-L1 TPS. Tumor uptake of ^68Ga-NOTA-WL12 higher than that of blood pool (BP) was considered positive.
The next series concerns the target PD-L1 (Homo sapiens, UniProt Q9NZQ7). The series is described as above.
Where [6] appears, read: tumor versus lung, total radioactivity.
Where [7] appears, read: 0, 5, 60, 120 μg WL12 coadministered.
The mark [8] stands for this setting: 6 patients with 1- and 2-h imaging.

PD-L1, sequence (Q9NZQ7 19-290): as above

With `OC[C@H]1OC(O)[C@H]([18F])[C@@H](O)[C@@H]1O` (stereo partly drawn) [^18F-FDG], in the series with NSCLC lesions [1], the “radiation dose of conventional PET/CT” value is on record as 7.0–14 mSv. The uptake in tumors entry with NSCLC lesions [2] is listed as “intense”.

Turning to `CCCC[C@H]1C(=O)N(C)[C@@H](CCCC)C(=O)N[C@@H](CCCNC(=O)CN2CCN(CC(=O)O)CCN(CC(=O)O)CC2)C(=O)N[C@H](C(=O)NCC(N)=O)CSCC(=O)N[C@@H](Cc2ccc(O)cc2)C(=O)N(C)[C@@H](C)C(=O)N[C@@H](CC(N)=O)C(=O)N2CCC[C@H]2C(=O)N[C@@H](Cc2c[nH]cn2)C(=O)N[C@@H](CC(C)C)C(=O)N2C[C@H](O)C[C@H]2C(=O)N[C@@H](Cc2c[nH]c3ccccc23)C(=O)N[C@@H](CO)C(=O)N[C@@H](Cc2cn(C)c3ccccc23)C(=O)N1C` [^68Ga-NOTA-WL12, metal not drawn], the “Effective dose per patient” value in [3] was found to be 4.1 mSv. In addition, the “changes in vital signs, laboratory studies, electrocardiograms” value in series [4] (before injection, screening period and 2 d after PET/CT) was “No significant changes”. In series [4] (nine PET/CT examinations, 1.9–3.7 MBq/kg i.v.), the “adverse or pharmacologic effects” value was “no adverse or clinically detectable pharmacologic effects”. Besides, the “tumor uptake in negative control CHO tumors” value in the series with CHO tumors was “minimal uptake”. In addition, the tissue to tissue ratio at 2 h was found to be 4.5 ± 0.2 in “in vivo” (tumor-to-blood-pool uptake (T/BP)), 19.1 ± 1.2 in “in vivo” (tumor-to-muscle uptake (T/M)) and 5.18 ± 2.27 in series [5] (setting [6]). Further, the “tumor uptake with coinjected blocking dose (in vivo specificity)” value with CHO-hPD-L1 tumors is “decreased”. In addition, the “cellular uptake in vitro” value at PD-L1 (CHO-hPD-L1 cells) was “PD-L1–specific uptake”. In addition, the SUV came to 1.78 SUV in series [5] (blood pool, SUVmax of blood pool (BP), patient 3, before therapy); 5.47 SUV in series [5] (left adrenal metastasis, SUVmax of left adrenal metastasis, patient 9, PD-L1 TPS 80%); 1.84 SUV in series [5] (primary tumor in left lung, SUVmax of primary tumor in left lung, patient 3, PD-L1 TPS 8%); 4.87 SUV in [5] (primary tumor, SUVmax of primary tumor, patient 9, PD-L1 TPS 80%); 0.8 SUV in series [5] (right sacral metastasis, SUVmax of right sacral metastasis, patient 3, PD-L1 TPS 8%); 2.21 SUV in series [5] (tumor, SUVmax of tumor before treatment, patient 1, PD-L1 TPS 8%). Further, the SUV in series [5] (tumor, SUVmax of tumor before treatment, patient 6, PD-L1 TPS 30%) came to 3.05 SUV. Besides, in [5] (setting [6]), the tissue to tissue ratio at 1 h worked out at 4.45 ± 1.89. Besides, the “change of liver uptake with increasing coadministered precursor dose” value on PD-L1 (setting [7]) is listed as “decreased”. Moreover, on PD-L1 (setting [7]), the “change of small intestine (SI) uptake with increasing coadministered precursor dose” value is listed as “increased”. In addition, at PD-L1 (setting [7]), the “change of spleen uptake with increasing coadministered precursor dose” value is reported as “gradual decrease”. On PD-L1 (0, 5, 60, 120 μg WL12 coadministered, 1 h), the “kidney and BP uptake at 1 h versus mass of WL12 used” value was “remained similar”. Also, at PD-L1 (setting [8]), the “change of SI uptake from 1 to 2 h” value was “significant increase”. At PD-L1 (setting [8]), the “change of liver uptake from 1 to 2 h” value was “significant decrease”. In addition, the “organ uptake pattern (biodistribution)” value on PD-L1 (NSCLC patients, PET/CT) is “mainly observed in the SI and liver”. In addition, on PD-L1 (NSCLC patients, from uptake in liver, SI and kidneys), the route of clearance result is “primarily through the hepatobiliary system and secondarily through renal excretion”.
